Laboratory results taken from US8207321B2, “Method of obtaining idolocarbazoles using biosynthetic rebeccamycin genes” (Universidad De Oviedo, priority 2001, dated 2012).

Key:
S. albus J1074/pKC505 = experiment: Paper disc growth inhibition by exogenously added rebeccamycin, control strain; type: cell-based, Streptomyces albus; settings: 100 μg rebeccamycin on paper disc, Bennett's agar, 28° C. for 4 days
Procedure: (§1) Therefore, cosmids 14E8 and 17A12, which conferred the ability to produce rebeccamycin, should also confer resistance to rebeccamycin. In order to confirm this point, we studied the effect of exogenously added rebeccamycin on the growth of S. albus J1074/14E8 and control strain S. albus J1074/pKC505. For this purpose, spores of each strain were used to inoculate plates of Bennett's agar (Kieser et al. Practical Streptomyces genetics, The John Innes Foundation, Norwich, UK, 2000) containing 25 μg/ml apramycin. Different amounts of rebeccamycin (dissolved in acetone) were added to paper discs placed on this pre-seeded medium. The plates were left at 4° C. for an hour to allow diffusion of the rebeccamycin solution, and then they were incubated at 28° C. for 4 days.

S. albus J1074/14E8 = experiment: Paper disc growth inhibition by exogenously added rebeccamycin, strain with cosmid 14E8; type: cell-based, Streptomyces albus; settings: Bennett's agar, 28° C. for 4 days
Procedure: as §1

S. albus J1074 = experiment: Growth inhibition of Streptomyces spp.; type: cell-based, Streptomyces albus
Staphylococcus aureus = settings: cited from earlier work
Micrococcus luteus = settings: cited from earlier work
Streptococcus faecalis = settings: cited from earlier work
[1] = system: several tumors implanted in mice; settings: cited from earlier work
several tumor cell lines = settings: cited from earlier work

## CO[C@H]1[C@H](O)[C@@H](O)[C@H](n2c3c(Cl)cccc3c3c4c(c5c6cccc(Cl)c6[nH]c5c32)C(=O)NC4=O)O[C@@H]1CO [Rebeccamycin]
S. albus J1074/pKC505
  growth of S. albus J1074/pKC505: totally inhibited
S. albus J1074/14E8; 100 μg rebeccamycin on paper disc
  growth of S. albus J1074/14E8: fully resistant
S. albus J1074/14E8; 200 μg rebeccamycin on paper disc
  growth of S. albus J1074/14E8: fully resistant
S. albus J1074
  inhibition of growth of Streptomyces spp. including S. albus J1074: weak inhibition of growth
Staphylococcus aureus
  antibacterial activity: antibacterial activity
Micrococcus luteus
  antibacterial activity: antibacterial activity
Streptococcus faecalis
  antibacterial activity: antibacterial activity
[1]
  antitumor activity in vivo: antitumor activity
Several tumor cell lines
  antitumor activity in vitro: antitumor activity
